Assay results published in ChEMBL document CHEMBL3832048, “DailyMed|setid=020d34eb-9560-4218-9d87-dfdeff705c3a | BICALUTAMIDE - bicalutamide tablet, film coated|Physicians Total Care, Inc”.

What was measured:
[1] = (§1) Pharmacokinetic parameters for Bicalutamide following single oral administration of Bicalutamide tablets to 30 healthy male subjects and 40 patients with prostrate cancer.; type: ADME, organism-based; parameters: route oral; conditions: human, in vivo, dosed compound id 25, dosed compound name BICALUTAMIDE, gender male, regimen Single dose, tissue Plasma
Homo sapiens = assay: as §1; type: ADME, organism-based; parameters: route oral; conditions: in vivo, po, dosed compound id 25, dosed compound name BICALUTAMIDE, gender male, regimen Single dose, tissue Plasma

## CC(O)(CS(=O)(=O)c1ccc(F)cc1)C(=O)Nc1ccc(C#N)c(C(F)(F)F)c1 (stereo not given) [BICALUTAMIDE]
[1]; po
  Cmax: 768 ng/mL
[1]; route oral
  CL/F: 5.33 mL/min
  Tmax: 31.3 h
  half-life: 139 h
Homo sapiens
  Css: 8939 ng/mL
